Values after ≈ are worked out from the molar mass of the structure shown.
What was measured:
[1] = system: Gram-positive and Gram-negative microorganisms; assay: Antimicrobial activity (general statement); type: cell-based; details: statement in words
Source text: (§1) Results of the tests on the antimicrobial activities and β-lactamase inhibitory activities are summarized as follows.

[2] = system: β-lactamase (penicillinase type) of Klebsiella sp. 363; assay: β-lactamase inhibitory activity, inhibition of hydrolysis of the substrate; type: biochemical; details: β-lactamase of Klebsiella sp. 363, penicillinase type; pH 7.0, 10 min preincubation, read after 20 min
Source text: (§2) (2) Test on the β-lactamase inhibitory activity:
(§3) The β-lactamase inhibitory activity is expressed as a minimum concentration (μg/ml) of the test compound which is required to inhibit the hydrolysis of the substrate by β-lactamase. The supernatant, which has been obtained by means of breaking the washed cells of the β-lactamase-producing microorganisms in a buffer with ultrasonic waves and then centrifuging the consequent cell-free extract, is employed as a standard β-lactamase.
(§4) A test compound is successively diluted with a buffer (pH 7.0) by a two-fold dilution method, the standard β-lactamase in added to each of the diluted solutions, then the mixture is allowed to stand for 10 minutes, and an indicator is added therein. The minimum inhibitory concentration at which no color is developed after observation for 20 minutes, is determined.
*^2 Producing penicillinasetype lactamase

[3] = system: β-lactamase; assay: β-lactamase inhibitory activity (general statement); type: biochemical; details: statement in words
Source text: as §1, §3, §4

[4] = system: Escherichia coli NIHJ JC-2; assay: Antimicrobial activity, agar dilution method; type: cell-based; details: NIHJJC2, inoculum 10^6 cells/ml, sensitivity disc agar, 37° C. overnight, read-out: Minimum Inhibitory Concentration
Procedure: (§5) (1) Antimicrobial Activity:
(§6) Test microorganism Concentration (μg/ml)
(§7) Determined by agar dilution method: Inoculum size 10^6 cells/ml,
(§8) Cultivation on a sensitivitydisc agar medium at 37° C. overnight.

[5] = system: Streptococcus pneumoniae I; assay: Antimicrobial activity, agar dilution method; type: cell-based; details: inoculum 10^6 cells/ml, sensitivity disc agar, 37° C. overnight, read-out: Minimum Inhibitory Concentration
Procedure: as §5, §6, §7, §8

[6] = system: Proteus mirabilis PR-4; assay: Antimicrobial activity, agar dilution method; type: cell-based; details: PR4, inoculum 10^6 cells/ml, sensitivity disc agar, 37° C. overnight, read-out: Minimum Inhibitory Concentration
Procedure: as §5, §6, §7, §8

[7] = system: Klebsiella pneumoniae SRL-1; assay: Antimicrobial activity, agar dilution method; type: cell-based; details: SRL1, inoculum 10^6 cells/ml, sensitivity disc agar, 37° C. overnight, read-out: Minimum Inhibitory Concentration
Procedure: as §5, §6, §7, §8

[8] = system: Klebsiella sp. 363(R); assay: Antimicrobial activity, agar dilution method; type: cell-based; details: inoculum 10^6 cells/ml, sensitivity disc agar, 37° C. overnight, read-out: Minimum Inhibitory Concentration
Procedure: as §5, §6, §7, §8

[9] = system: Pseudomonas aeruginosa ATCC 25619; assay: Antimicrobial activity, agar dilution method; type: cell-based; details: ATCC25619, inoculum 10^6 cells/ml, sensitivity disc agar, 37° C. overnight, read-out: Minimum Inhibitory Concentration
Procedure: as §5, §6, §7, §8

[10] = system: Staphylococcus aureus 209P JC-1; assay: Antimicrobial activity, agar dilution method; type: cell-based; details: inoculum 10^6 cells/ml, sensitivity disc agar, 37° C. overnight, read-out: Minimum Inhibitory Concentration
Procedure: as §5, §6, §7, §8

[11] = system: Enterobacter cloacae 233; assay: Antimicrobial activity, agar dilution method; type: cell-based; details: inoculum 10^6 cells/ml, sensitivity disc agar, 37° C. overnight, read-out: Minimum Inhibitory Concentration
Procedure: as §5, §6, §7, §8

[12] = target: T1, β-lactamase (cephalosporinase type) of Enterobacter cloacae 92 (Enterobacter cloacae, UniProt P05364); assay: β-lactamase inhibitory activity, inhibition of hydrolysis of the substrate; type: biochemical; details: β-lactamase of Enterobacter cloacae 92, cephalosporinase type; pH 7.0, 10 min preincubation, read after 20 min
T1 construct: supernatant of sonicated, washed cells of the producing strain (crude cell-free extract)
T1 sequence (P05364 21-381): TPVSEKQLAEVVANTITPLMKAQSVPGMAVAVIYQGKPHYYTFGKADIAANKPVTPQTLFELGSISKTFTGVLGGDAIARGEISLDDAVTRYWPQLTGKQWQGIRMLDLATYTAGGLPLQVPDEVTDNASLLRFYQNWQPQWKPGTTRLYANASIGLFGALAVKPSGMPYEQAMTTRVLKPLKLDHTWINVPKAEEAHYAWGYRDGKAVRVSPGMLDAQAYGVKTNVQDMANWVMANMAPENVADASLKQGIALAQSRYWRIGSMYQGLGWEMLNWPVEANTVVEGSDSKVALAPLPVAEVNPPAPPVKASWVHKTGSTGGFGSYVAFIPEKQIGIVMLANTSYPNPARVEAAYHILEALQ
Source text: as §2, §3, §4
*^1 Producing cephalosporinasetype lactamase

| Structure (SMILES) | antimicrobial activities [1] | Minimum Inhibitory Concentration (inhibition of substrate hydrolysis by β-lactamase) [2] [µg/mL] | β-lactamase inhibitory activities [3] | MIC [4] [µg/mL] | MIC [5] [µg/mL] | MIC [6] [µg/mL] | MIC [7] [µg/mL] | MIC [8] [µg/mL] | MIC [9] [µg/mL] | MIC [10] [µg/mL] | MIC [11] [µg/mL] | Minimum Inhibitory Concentration (inhibition of substrate hydrolysis by β-lactamase) [12] [µg/mL] |
| --- | --- | --- | --- | --- | --- | --- | --- | --- | --- | --- | --- | --- |
| C[C@H](OS(=O)(=O)O)[C@@H]1C(=O)N2C(C(=O)O)=C(S(=O)O)C[C@H]12 [PA-41746-A2] | antimicrobial activities against Gram-positive and Gram-negative microorganisms | 1.0 | excellent β-lactamase inhibitory activities | 1.56 (≈ 4.57 µM) | 1.56 (≈ 4.57 µM) | 3.13 (≈ 9.17 µM) | 1.56 (≈ 4.57 µM) | 1.56 (≈ 4.57 µM) | > 100 | 12.5 (≈ 36.6 µM) | 6.25 (≈ 18.3 µM) | 0.008 |
| C[C@H](OS(=O)(=O)O)[C@@H]1C(=O)N2C(C(=O)O)=C([S@+]([O-])CCO)C[C@H]12 [PA-41746-E] | antimicrobial activities against Gram-positive and Gram-negative microorganisms | 0.008 | excellent β-lactamase inhibitory activities |  |  |  |  |  |  |  |  | 0.016 |
| CC(=O)NCC[S@@+]([O-])C1=C(C(=O)O)N2C(=O)[C@@H]([C@H](C)OS(=O)(=O)O)[C@H]2C1 [PA-41746-F] | antimicrobial activities against Gram-positive and Gram-negative microorganisms | 0.002 | excellent β-lactamase inhibitory activities |  |  |  |  |  |  |  |  | 0.002 |

From patent US4647408A, “Carbapenem-type antibiotics” (Shionogi & Co., Ltd., priority 1983, dated 1987)
